Measured values taken from patent US11786492B2, “Therapeutic agent for phosphodiesterase inhibition and its related disorders” (Novalead Pharma Inc, priority 2017, dated 2023).
Where two headings read alike, the source gives them in different places.

What was measured:
TNF-α = TNF-α release from stimulated HaCaT cells, ELISA; format: cell-based, human; conditions: IFN-γ 50 ng/mL, 48 hrs
Procedure: (§1) HaCaT cells were maintained in T-75 cm2 flask in Dulbecco's modified Eagle medium supplemented with FBS (10%), L-glutamine (2 mM), penicillin (100 ug/ml), streptomycin (100 ug/ml) at 37° C. in 5% CO2 incubator. Cell growth was maintained to 70-80% confluence for seeding and vehicle used was 1% DMSO. The cell viability was checked at various time points using Alamar blue and fluorescence readings were taken at excitation of 544 nm and emission of 590 nm.
(§2) HaCaT cells were stimulated with different stimulators as follows: • a. Cells were exposed to stimulator LPS at 1 μg/mL for 48 hrs to stimulate IL-1β • b. Cells were exposed to stimulator IFN-γ at 50 ng/mL for 48 hrs to stimulate TNF-α, IL-6
(§3) After 48 hrs supernatants were collected and centrifuged to remove any cell debris and aliquots were used for ELISA.

HaCaT cells [1] = test: Cell viability of HaCaT cells, Alamar blue; format: cell-based, human
Procedure: as §1

Human IL-17F = test: IL-17F release from stimulated PBMCs, ELISA; format: cell-based; conditions: PMA+Ionomycin, 18 hrs
Procedure: (§4) Fresh human blood from healthy volunteer was collected in anticoagulant (5 mM) ethylene diamine tetra acetic acid (EDTA) containing tubes. The growth medium used was RPMI-1640 medium (with 3% FBS) and incubated at 37° C. for 60 mins in a 5% CO2 incubator with vehicle used as 1% DMSO. The cell viability was checked at various time points using Alamar blue and fluorescence readings were taken at excitation of 544 nm and emission of 590 nm.
(§5) PBMCs were stimulated with different stimulators as follows: • a. Cells were exposed to stimulator LPS at 100 ng/mL for 18 hrs to stimulate TNF-α, IL-6, IFN-γ, IL10, IL-1β • b. Cells were exposed to stimulator IFN-γ+LPS at 100 ng/mL+1 μg/mL for 18 hrs to stimulate IL-12 • c. Cells were exposed to stimulator PMA+Ionomycin at 50 ng/mL+1 μg/mL for 18 hrs to stimulate IL-23, IL-22, IL-17A, IL-17F
(§6) After 18 hrs supernatants were collected and centrifuged to remove any cell debris and aliquots were used for ELISA.

Human IL-22 = test: IL-22 release from stimulated PBMCs, ELISA; format: cell-based; conditions: PMA+Ionomycin, 18 hrs
Procedure: as §4, §5, §6

human PBMCs = test: Cell viability of human PBMCs, Alamar blue; format: cell-based
Procedure: as §4

Human IL-12 = test: IL-12 release from stimulated PBMCs, ELISA; format: cell-based; conditions: IFN-γ+LPS, 18 hrs
Procedure: as §4, §5, §6

IL-6 = IL-6 release from stimulated HaCaT cells, ELISA; format: cell-based, human; conditions: IFN-γ 50 ng/mL, 48 hrs
Procedure: as §1, §2, §3

Human IL-1β = test: IL-1β release from stimulated PBMCs, ELISA; format: cell-based; conditions: LPS 100 ng/mL, 18 hrs
Procedure: as §4, §5, §6

Human IL-10 = test: IL-10 release from stimulated PBMCs, ELISA; format: cell-based; conditions: LPS 100 ng/mL, 18 hrs
Procedure: as §4, §5, §6

PDE4B = PDE4B (Homo sapiens, UniProt Q07343); test: Fluorescence polarization assay PDE4B; format: biochemical; conditions: substrate cAMP
Procedure: (§7) An experiment to check inhibition of various subtypes of the target Phosphodiesterase (PDE) enzyme in in-vitro assay was performed. […] PDE1A, PDE2A, PDE4A, PDE4B, PDE4C, PDE4D, PDE5A, PDE7A, PDE9A, PDE10A.

Human IL-6 = test: IL-6 release from stimulated PBMCs, ELISA; format: cell-based; conditions: LPS 100 ng/mL, 18 hrs
Procedure: as §4, §5, §6

PDE2A = PDE2A (Homo sapiens, UniProt O00408); test: Fluorescence polarization assay PDE2A; format: biochemical; conditions: substrate cGMP
Procedure: as §7

HaCaT cells [2] = test: Keratinocyte (HaCaT) proliferation, MTT assay; format: cell-based, human; conditions: for IC50: Homo sapiens, HaCaT, read-out: IC50 of cell proliferation
Procedure: An experiment to check keratinocyte proliferation inhibitory activity of selected compounds of Formula-I was performed to establish its application in skin disorders related to keratinocyte hyper-proliferation. HaCaT cells, a human immortalized cell line derived from keratinocytes, representing hyper-proliferating keratinocytes was investigated for anti-proliferative potential of the selected compounds by MTT assay.

Sequence of PDE2A (O00408 whole entry, species assumed): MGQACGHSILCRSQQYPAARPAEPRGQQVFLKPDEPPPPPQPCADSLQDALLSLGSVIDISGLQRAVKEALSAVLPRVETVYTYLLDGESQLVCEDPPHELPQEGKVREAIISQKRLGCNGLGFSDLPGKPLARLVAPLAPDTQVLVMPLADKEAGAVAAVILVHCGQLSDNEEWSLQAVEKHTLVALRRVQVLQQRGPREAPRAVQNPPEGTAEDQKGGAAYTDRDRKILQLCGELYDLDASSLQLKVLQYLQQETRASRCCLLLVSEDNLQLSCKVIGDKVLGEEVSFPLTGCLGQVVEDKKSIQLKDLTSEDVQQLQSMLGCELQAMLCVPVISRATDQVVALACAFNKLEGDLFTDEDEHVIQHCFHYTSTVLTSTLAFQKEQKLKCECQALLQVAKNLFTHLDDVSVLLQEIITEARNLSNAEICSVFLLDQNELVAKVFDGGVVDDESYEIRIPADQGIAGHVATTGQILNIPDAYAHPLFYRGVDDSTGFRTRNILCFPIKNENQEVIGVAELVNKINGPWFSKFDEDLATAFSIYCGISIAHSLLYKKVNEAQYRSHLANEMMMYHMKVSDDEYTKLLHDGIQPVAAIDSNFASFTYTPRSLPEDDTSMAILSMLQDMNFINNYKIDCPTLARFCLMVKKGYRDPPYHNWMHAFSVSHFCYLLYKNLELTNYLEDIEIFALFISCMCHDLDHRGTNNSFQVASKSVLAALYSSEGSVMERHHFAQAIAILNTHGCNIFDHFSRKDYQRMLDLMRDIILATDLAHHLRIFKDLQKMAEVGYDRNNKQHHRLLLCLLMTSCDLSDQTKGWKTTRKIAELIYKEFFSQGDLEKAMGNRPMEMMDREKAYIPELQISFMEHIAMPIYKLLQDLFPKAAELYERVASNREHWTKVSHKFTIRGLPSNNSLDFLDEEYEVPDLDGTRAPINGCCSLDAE
Sequence of PDE4B (Q07343 whole entry, species assumed): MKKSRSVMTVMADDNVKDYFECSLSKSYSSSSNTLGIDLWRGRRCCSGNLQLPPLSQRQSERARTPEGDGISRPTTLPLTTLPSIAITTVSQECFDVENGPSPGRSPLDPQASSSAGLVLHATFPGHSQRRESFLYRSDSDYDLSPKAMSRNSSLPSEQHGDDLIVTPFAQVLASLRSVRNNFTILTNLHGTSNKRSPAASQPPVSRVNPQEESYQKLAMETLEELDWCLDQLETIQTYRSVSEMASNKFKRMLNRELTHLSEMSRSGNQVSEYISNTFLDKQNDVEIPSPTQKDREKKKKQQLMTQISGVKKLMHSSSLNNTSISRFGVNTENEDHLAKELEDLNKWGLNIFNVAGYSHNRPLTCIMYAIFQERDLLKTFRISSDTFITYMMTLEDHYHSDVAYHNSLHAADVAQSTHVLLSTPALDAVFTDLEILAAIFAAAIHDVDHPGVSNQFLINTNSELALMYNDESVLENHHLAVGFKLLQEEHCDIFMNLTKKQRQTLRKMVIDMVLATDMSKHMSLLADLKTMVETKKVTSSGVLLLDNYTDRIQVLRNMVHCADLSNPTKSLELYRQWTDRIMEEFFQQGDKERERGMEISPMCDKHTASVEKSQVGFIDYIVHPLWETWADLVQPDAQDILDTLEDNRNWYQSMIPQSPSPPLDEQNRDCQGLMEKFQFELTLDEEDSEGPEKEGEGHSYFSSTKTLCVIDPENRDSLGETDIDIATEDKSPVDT

O=C(Nc1ncc([N+](=O)[O-])s1)c1ccccc1O [Tizoxanide]
TNF-α Conc. (TNF-α; 0.1 μM): 2.9 ± 0.2 pg/mL | TNF-α Conc. (TNF-α; 0.5 μM): 3.2 ± 0.1 pg/mL | TNF-α Conc. (TNF-α; 1 μM): 2.3 ± 0.5 pg/mL | % Viability (±S.E.M.) (HaCaT cells [1]; 0.1 μM, 24 hrs): 76 ± 6% | % Viability (±S.E.M.) (HaCaT cells [1]; 0.1 μM, 48 hrs): 114 ± 2% | % Viability (±S.E.M.) (HaCaT cells [1]; 0.1 μM, 72 hrs): 112 ± 6% | % Viability (±S.E.M.) (HaCaT cells [1]; 1 μM, 24 hrs): 74 ± 6% | % Viability (±S.E.M.) (HaCaT cells [1]; 1 μM, 48 hrs): 91 ± 5% | % Viability (±S.E.M.) (HaCaT cells [1]; 1 μM, 72 hrs): 91 ± 2% | % Viability (±S.E.M.) (HaCaT cells [1]; 10 μM, 24 hrs): 34 ± 1% | % Viability (±S.E.M.) (HaCaT cells [1]; 10 μM, 48 hrs): 35 ± 0% | % Viability (±S.E.M.) (HaCaT cells [1]; 10 μM, 72 hrs): 43 ± 1% | % Viability (±S.E.M.) (HaCaT cells [1]; 50 μM, 24 hrs): 24 ± 1% | % Viability (±S.E.M.) (HaCaT cells [1]; 50 μM, 48 hrs): 20 ± 0% | % Viability (±S.E.M.) (HaCaT cells [1]; 50 μM, 72 hrs): 25 ± 0% | % Viability (±S.E.M.) (HaCaT cells [1]; 100 μM, 24 hrs): 20 ± 0% | % Viability (±S.E.M.) (HaCaT cells [1]; 100 μM, 48 hrs): 13 ± 0% | % Viability (±S.E.M.) (HaCaT cells [1]; 100 μM, 72 hrs): 20 ± 0% | Concentration which exhibited cell viability of 70% (HaCaT cells [1]; HaCaT cells, maximum concentration for stimulation study): 1 µM | Human IL-17F concentration (Human IL-17F; 1 μM): 151 pg/mL | Human IL-17F concentration (Human IL-17F; 10 μM): 0 pg/mL | Human IL-17F concentration (Human IL-17F; 25 μM): 0 pg/mL | Human IL-17F concentration (Human IL-17F; 50 μM): 0 pg/mL | Human IL-22 concentration (Human IL-22; 1 μM): 7858 pg/mL | Human IL-22 concentration (Human IL-22; 10 μM): 1189 pg/mL | Human IL-22 concentration (Human IL-22; 25 μM): 280 pg/mL | Human IL-22 concentration (Human IL-22; 50 μM): 0 pg/mL | % Viability (±S.E.M.) (human PBMCs; 0.01 μM, 24 hrs): 91 ± 3% | % Viability (±S.E.M.) (human PBMCs; 0.01 μM, 48 hrs): 96 ± 3% | % Viability (±S.E.M.) (human PBMCs; 0.01 μM, 72 hrs): 115 ± 1% | % Viability (±S.E.M.) (human PBMCs; 1 μM, 24 hrs): 84 ± 2% | % Viability (±S.E.M.) (human PBMCs; 1 μM, 48 hrs): 101 ± 4% | % Viability (±S.E.M.) (human PBMCs; 1 μM, 72 hrs): 102 ± 3% | % Viability (±S.E.M.) (human PBMCs; 100 μM, 24 hrs): 91 ± 5% | % Viability (±S.E.M.) (human PBMCs; 100 μM, 48 hrs): 64 ± 2% | % Viability (±S.E.M.) (human PBMCs; 100 μM, 72 hrs): 25 ± 2% | Concentration which exhibited cell viability of 70% (human PBMCs; PBMCs, maximum concentration for stimulation study): 50 µM | Human IL-12 concentration (Human IL-12; 1 μM): 4715 pg/mL | Human IL-12 concentration (Human IL-12; 10 μM): 1401 pg/mL | Human IL-12 concentration (Human IL-12; 25 μM): 381 pg/mL | Human IL-12 concentration (Human IL-12; 50 μM): 101 pg/mL | IL-6 Conc. (IL-6; 0.1 μM): 87 ± 2 pg/mL | IL-6 Conc. (IL-6; 0.5 μM): 80 ± 2 pg/mL | IL-6 Conc. (IL-6; 1 μM): 78 ± 6 pg/mL | Human IL-1β concentration (Human IL-1β; 1 μM): 4577 pg/mL | Human IL-1β concentration (Human IL-1β; 10 μM): 4118 pg/mL | Human IL-1β concentration (Human IL-1β; 25 μM): 4168 pg/mL | Human IL-1β concentration (Human IL-1β; 50 μM): 2522 pg/mL | Human IL-10 concentration (Human IL-10; 1 μM): 1591 pg/mL | Human IL-10 concentration (Human IL-10; 10 μM): 493 pg/mL | Human IL-10 concentration (Human IL-10; 25 μM): 76 pg/mL | Human IL-10 concentration (Human IL-10; 50 μM): 42 pg/mL | IC50 (PDE4B): > 500 µM | Human IL-6 concentration (Human IL-6; 1 μM): 6122 pg/mL | Human IL-6 concentration (Human IL-6; 10 μM): 5225 pg/mL | Human IL-6 concentration (Human IL-6; 25 μM): 3428 pg/mL | Human IL-6 concentration (Human IL-6; 50 μM): 2086 pg/mL | IC50 (PDE2A): 12 µM | Cell proliferation (% of Control) (HaCaT cells [2]; 0.01 μM, 24 h): 98.2 % of Control | Cell proliferation (% of Control) (HaCaT cells [2]; 0.01 μM, 48 h): 109.5 % of Control | Cell proliferation (% of Control) (HaCaT cells [2]; 0.01 μM, 72 h): 87.4 % of Control | Cell proliferation (% of Control) (HaCaT cells [2]; 0.1 μM, 24 h): 93.9 % of Control | Cell proliferation (% of Control) (HaCaT cells [2]; 0.1 μM, 48 h): 120.1 % of Control | Cell proliferation (% of Control) (HaCaT cells [2]; 0.1 μM, 72 h): 82.7 % of Control | Cell proliferation (% of Control) (HaCaT cells [2]; 0.5 μM, 24 h): 93.2 % of Control | Cell proliferation (% of Control) (HaCaT cells [2]; 0.5 μM, 48 h): 108.9 % of Control | Cell proliferation (% of Control) (HaCaT cells [2]; 0.5 μM, 72 h): 87.7 % of Control | Cell proliferation (% of Control) (HaCaT cells [2]; 1 μM, 24 h): 99.7 % of Control | Cell proliferation (% of Control) (HaCaT cells [2]; 1 μM, 48 h): 112.4 % of Control | Cell proliferation (% of Control) (HaCaT cells [2]; 1 μM, 72 h): 81 % of Control | Cell proliferation (% of Control) (HaCaT cells [2]; 5 μM, 24 h): 101.6 % of Control | Cell proliferation (% of Control) (HaCaT cells [2]; 5 μM, 48 h): 89.3 % of Control | Cell proliferation (% of Control) (HaCaT cells [2]; 5 μM, 72 h): 77.9 % of Control | Cell proliferation (% of Control) (HaCaT cells [2]; 10 μM, 24 h): 94.9 % of Control | Cell proliferation (% of Control) (HaCaT cells [2]; 10 μM, 48 h): 74.1 % of Control | Cell proliferation (% of Control) (HaCaT cells [2]; 10 μM, 72 h): 64.3 % of Control | Cell proliferation (% of Control) (HaCaT cells [2]; 50 μM, 24 h): 67.3 % of Control | Cell proliferation (% of Control) (HaCaT cells [2]; 50 μM, 48 h): 59.9 % of Control | Cell proliferation (% of Control) (HaCaT cells [2]; 50 μM, 72 h): 38 % of Control | Cell proliferation (% of Control) (HaCaT cells [2]; 100 μM, 24 h): 53.5 % of Control | Cell proliferation (% of Control) (HaCaT cells [2]; 100 μM, 48 h): 38.6 % of Control | Cell proliferation (% of Control) (HaCaT cells [2]; 100 μM, 72 h): 22.8 % of Control | IC50 (HaCaT cells [2]; 48 h): 59.9 µM | IC50 (HaCaT cells [2]; 72 h): 22.4 µM
